Measured values: US8536215B2, “Pyrazole microbiocides” (Syngenta Crop Protection LLC, priority 2010, dated 2013)
Each block holds one molecule with its values, some of them ahead of it.

Legend:
[1] = test system: Botrytis cinerea; test: Action against Botrytis cinerea - fungal growth assay; format: cell-based; details: 0.002% active ingredient, PDB broth, 24° C., photometric after 3-4 days
Procedure: (§1) Conidia of the fungus from cryogenic storage was directly mixed into nutrient broth (PDB potato dextrose broth). After placing a (DMSO) solution of the test compounds (0.002% active ingredient) into a microtiter plate (96-well format) the nutrient broth containing the fungal spores was added. The test plates were incubated at 24° C. and the inhibition of growth was measured photometrically after 3-4 days. The activity of a compound was expressed as fungal growth inhibition (0=no growth inhibition, ratings of 80% to 99% mean good to very good inhibition, 100%=complete inhibition).

[2] = test system: Mycosphaerella arachidis (Cercospora arachidicola [Anamorph]); test: Action against Mycosphaerella arachidis (early leaf spot of groundnut) - fungal growth assay; format: cell-based; details: 0.002% active ingredient, PDB broth, 24° C., photometric after 6-7 days
Procedure: as §1, with “storage were” for “storage was”, “after 6-7” for “after 3-4”

[3] = test system: Septoria tritici; test: Action against Septoria tritici - fungal growth assay; format: cell-based; details: Zymoseptoria tritici; 0.002% active ingredient, PDB broth, 24° C., photometric after 72 hrs
Procedure: as §1, with “storage were” for “storage was”, “was determined” for “was measured”, “after 72 hrs.” for “after 3-4 days.”

[4] = test system: Monographella nivalis (Anamorph: Fusarium nivale, Microdochium nivale); test: Action against Monographella nivalis (snow mould) - fungal growth assay; format: cell-based; details: 0.002% active ingredient, PDB broth, 24° C., photometric after 72 hrs
Procedure: as §1, with “storage were” for “storage was”, “a DMSO-solution” for “a (DMSO) solution”, “after 72 hrs” for “after 3-4 days. The activity of a compound was expressed as fungal growth inhibition”

[5] = test system: Rhizoctonia Solani; test: Action against Rhizoctonia solani - fungal growth assay; format: cell-based; details: 0.002% active ingredient, PDB broth, 24° C., photometric after 3-4 days
Procedure: as §1, with “Mycelial fragments of a newly grown liquid culture” for “Conidia”, “were” for “from cryogenic storage was”

[6] = test system: Erysiphe graminis f. sp. tritici; test: Action against Erysiphe graminis f. sp. tritici (wheat powdery mildew), wheat leaf segments, preventive; format: in vivo; details: Blumeria graminis, foliar, 168 h; 0.02% active ingredient sprayed on wheat leaf segments, assessed 7 days after inoculation; read-out: preventive fungicidal activity (inhibition)
Procedure: (§2) Wheat leaf segments were placed on agar in multiwell plates (24-well format) and sprayed with test solutions (0.02% active ingredient). After drying, the leaf disks were inoculated with a spore suspension of the fungus. After appropriate incubation the activity of a compound was assessed 7 days after inoculation as preventive fungicidal activity.

[7] = test system: Pyrenophora teres; test: Action against Pyrenophora teres (net blotch) on barley leaf segments, preventive; format: in vivo; details: foliar, 96 h, 0.02% active ingredient sprayed on barley leaf segments, assessed 4 days after inoculation, read-out: preventive fungicidal activity (inhibition)
Procedure: as §2, with “Barley” for “Wheat”, “4” for “7”

[8] = test system: Puccinia recondita; test: Protective action against Puccinia recondita (brown rust) on wheat leaf segments; format: in vivo; details: foliar, 192 h, 0.02% active ingredient sprayed on wheat leaf segments, assessed 8 days after inoculation, read-out: preventive fungicidal activity (inhibition)
Procedure: as §2, with “8” for “7”

[9] = test system: Puccinia recondita; test: Curative action against Puccinia recondita (brown rust) on wheat leaf segments; format: in vivo; details: foliar, 0.02% active ingredient sprayed one day after inoculation of wheat leaf segments, assessed 8 days after inoculation, read-out: curative fungicidal activity (inhibition)
Procedure: Wheat leaf segments were placed on agar in multiwell plates (24-well format) and inoculated with a spore suspension of the fungus. One day after inoculation the leaf segments were sprayed with test solutions (0.02% active ingredient). After appropriate incubation the activity of a compound was assessed 8 days after inoculation as curative fungicidal activity.

Structure (SMILES): CON(C(=O)c1cn(C)nc1C(F)F)C(C)C1CCC(C)=CC1(C)C (single isomer, unassigned) [Compound 1.081 Diastereomer A, 3-difluoromethyl-1-methyl-1H-pyrazole-4-carboxylic acid methoxy-[1-(2,2,4-trimethyl-cyclohex-3-enyl)-ethyl]-amide]
inhibition at 0.002 % strength [1]: ≥ 80%

Structure (SMILES): CON(C(=O)c1cn(C)nc1C(F)F)C(C)C1CC=C(C)CC1 (stereo not drawn) [Compound 1.049]
inhibition at 0.002 % strength [1]: ≥ 80%
inhibition at 0.002 % strength [2]: ≥ 80%
inhibition at 0.002 % strength [3]: ≥ 80%
inhibition at 0.002 % strength [4]: ≥ 80%
inhibition at 0.002 % strength [5]: ≥ 80%
inhibition at 0.02 % strength [6]: ≥ 80%
inhibition at 0.02 % strength [7]: ≥ 80%

melting point: 95 to 105 °C
Structure (SMILES): CON(C(=O)c1cn(C)nc1C(F)F)C(C)C1CCC(C)=CC1(C)C (stereo not drawn) [Compound 1.081, 3-difluoromethyl-1-methyl-1H-pyrazole-4-carboxylic acid methoxy-[1-(2,2,4-trimethyl-cyclohex-3-enyl)-ethyl]-amide]
inhibition at 0.002 % strength [1]: ≥ 80%
inhibition at 0.002 % strength [2]: ≥ 80%
inhibition at 0.002 % strength [3]: ≥ 80%
inhibition at 0.002 % strength [4]: ≥ 80%
inhibition at 0.002 % strength [5]: ≥ 80%
inhibition at 0.02 % strength [6]: ≥ 80%
inhibition at 0.02 % strength [8]: ≥ 80%
inhibition at 0.02 % strength [9]: ≥ 80%
inhibition at 0.02 % strength [7]: ≥ 80%
